Test results: patent US20230242530A1, “8-(AZETIDIN-1-YL)-[1,2,4]TRIAZOLO[1,5-A]PYRIDINYL COMPOUNDS, COMPOSITIONS AND METHODS OF USE THEREOF” (Genentech, Inc., priority 2016, published 2023)

Assays:
[1] = molecular target: T1, isolated recombinant JAK1 kinase domain (Homo sapiens, UniProt P23458); test: JAK enzyme assay, JAK1 kinase domain (Caliper LabChip); assay type: biochemical; details: 1.5 nM JAK1, ATP 25 μM, Morrison tight binding model
T1 construct: isolated recombinant JAK1 and JAK2 kinase domain
Procedure, shortened: (§1)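 Ki values were obtained by Morrison tight-binding analysis with ATP-competitive correction, Ki=Ki,app/(1+[ATP]/Km,app). Phosphorylated versus total fluorescent JAK3-derived peptide was quantified on a Caliper LabChip. Kinase reactions with the isolated recombinant domains ran 30 min at 22 °C before EDTA quench (50 mM final).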

[2] = molecular target: T2, isolated recombinant JAK2 kinase domain (Homo sapiens, UniProt O60674); test: JAK enzyme assay, JAK2 kinase domain (Caliper LabChip); assay type: biochemical; details: 0.2 nM JAK2, ATP 25 μM, Morrison tight binding model
T2 construct: isolated recombinant JAK1 and JAK2 kinase domain
Procedure, shortened: as §1

[3] = tested on: JAK1-dependent STAT6 phosphorylation downstream of IL-13 stimulation in BEAS-2B cells; test: JAK1 pathway assay in cell lines: IL-13 p-STAT6 BEAS-2B; assay type: cell-based; details: BEAS-2B human bronchial epithelial cells, 1 hr compound, IL-13 15 min, MSD readout
Procedure, shortened: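 Phospho-STAT6 read by MSD electrochemiluminescence in lysates of BEAS-2B cells kept in complete growth medium. Cells were pretreated 1 hr at 37 °C with compound (0.2% DMSO final) and stimulated 15 min with IL-13 at its EC90; EC50 is the concentration halving signal versus DMSO.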

T1 sequence (P23458 875-1153 limits assumed): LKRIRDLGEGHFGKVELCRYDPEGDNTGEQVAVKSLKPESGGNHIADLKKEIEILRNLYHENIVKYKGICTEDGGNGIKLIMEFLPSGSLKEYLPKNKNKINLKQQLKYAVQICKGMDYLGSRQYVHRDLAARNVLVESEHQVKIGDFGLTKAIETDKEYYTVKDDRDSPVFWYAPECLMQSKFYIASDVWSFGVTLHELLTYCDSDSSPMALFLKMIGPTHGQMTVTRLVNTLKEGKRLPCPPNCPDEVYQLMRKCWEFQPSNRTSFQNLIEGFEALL
T2 sequence (O60674 849-1124 limits assumed): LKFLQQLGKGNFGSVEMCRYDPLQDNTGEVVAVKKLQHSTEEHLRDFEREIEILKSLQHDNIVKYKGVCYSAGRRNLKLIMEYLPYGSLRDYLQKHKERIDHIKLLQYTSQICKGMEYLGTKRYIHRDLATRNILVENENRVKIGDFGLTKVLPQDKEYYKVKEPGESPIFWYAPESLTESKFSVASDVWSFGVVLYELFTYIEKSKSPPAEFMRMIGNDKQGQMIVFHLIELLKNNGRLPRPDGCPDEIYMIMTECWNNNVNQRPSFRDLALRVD

| Structure (SMILES) | Ki [1] | Ki [2] | EC50 [3] |
| --- | --- | --- | --- |
| CN1CCN(C(=O)Cn2cc(Nc3nc4c(N5CC(CC#N)(n6cc(CCF)cn6)C5)cccn4n3)cn2)CC1 [Example 40, 2-[3-[4-(2-fluoroethyl)pyrazol-1-yl]-1-[2-[[1-[2-(4-methylpiperazin-1-yl)-2-oxo-ethyl]pyrazol-4-yl]amino]-[1,2,4]triazolo[1,5-a]pyridin-8-yl]azetidin-3-yl]acetonitrile] | 0.3 nM | 0.2 nM | 18 nM |
| CCc1cnn(C2(CC#N)CN(c3cccn4nc(Nc5ccc(C(=O)N(C)CC6CCN(C)CC6)cc5)nc34)C2)c1 [Example 84, 4-[[8-[3-(cyanomethyl)-3-(4-ethylpyrazol-1-yl)azetidin-1-yl]-[1,2,4]triazolo[1,5-a]pyridin-2-yl]amino]-N-methyl-N-[(l-methyl-4-piperidyl)methyl]benzamide] | 0.3 nM | 0.3 nM | 16 nM |
| CN1CCN(C(=O)Cn2cc(Nc3nc4c(N5CC(CC#N)(c6ccc(C(F)(F)F)cc6)C5)cccn4n3)cn2)CC1 [Example 17] | 0.3 nM | 1.2 nM | 18 nM |
| N#CCC1(n2cc(Br)cn2)CN(c2cccn3nc(Nc4cnn(CC(=O)N5CCC(N6CCOCC6)CC5)c4)nc23)C1 [Example 130, 2-[3-(4-bromopyrazol-1-yl)-1-[2-[[1-[2-(4-morpholino-1-piperidyl)-2-oxo-ethyl]pyrazol-4-yl]amino]-[1,2,4]triazolo[1,5-a]pyridin-8-yl]azetidin-3-yl]acetonitrile] | 0.4 nM | 1.1 nM | 117 nM |
| CCc1cnn(C2(CC#N)CN(c3cccn4nc(Nc5cnn(C)c5)nc34)C2)c1 [Example 127, 2-(3-(4-ethyl-1H-pyrazol-1-yl)-1-(2-((1-methyl-H-pyrazol-4-yl)amino)-[1,2,4]triazolo[1,5-a]pyridin-8-yl)azetidin-3-yl)acetonitrile] | 0.2 nM | 0.4 nM | 10 nM |
| CCc1cnn(C2(CC#N)CN(c3cccn4nc(Nc5ccc(C(=O)N(C)CC6CCN(C7COC7)CC6)cc5)nc34)C2)c1 [Example 88, 4-[[8-[3-(cyanomethyl)-3-(4-ethylpyrazol-1-yl)azetidin-1-yl]-[1,2,4]triazolo[1,5-a]pyridin-2-yl]amino]-N-methyl-N-[[1-(oxetan-3-yl)-4-piperidyl]methyl]benzamide] | 0.4 nM | 1 nM | 35 nM |
| N#CCC1(n2cc(C(F)(F)F)cn2)CN(c2cccn3nc(Nc4cnn(CC(=O)N5CCN(CCO)CC5)c4)nc23)C1 [Example 125, formic acid;2-[1-[2-[[1-[2-[4-(2-hydroxyethyl)piperazin-1-yl]-2-oxo-ethyl]pyrazol-4-yl]amino]-[1,2,4]triazolo[1,5-a]pyridin-8-yl]-3-[4-(trifluoromethyl)pyrazol-1-yl]azetidin-3-yl]acetonitrile] | 0.4 nM | 0.4 nM | 21 nM |
| CN1CCN(C(=O)Cn2cc(Nc3nc4c(N5CC(CC#N)(n6cc(F)cn6)C5)cccn4n3)cn2)CC1 [Example 19, 2-[3-(4-fluoropyrazol-1-yl)-1-[2-[[1-[2-(4-methylpiperazin-1-yl)-2-oxo-ethyl]pyrazol-4-yl]amino]-[1,2,4]triazolo[1,5-a]pyridin-8-yl]azetidin-3-yl]acetonitrile] | 4.4 nM | 4 nM | 255 nM |
| COc1cnn(C2(CC#N)CN(c3cccn4nc(Nc5cn[nH]c5)nc34)C2)c1 [Example 139, 2-[3-(4-methoxypyrazol-1-yl)-1-[2-(1H-pyrazol-4-ylamino)-[1,2,4]triazolo[1,5-a]pyridin-8-yl]azetidin-3-yl]acetonitrile] | 0.4 nM | 0.9 nM | 39 nM |
| CCc1cnn(C2(CC#N)CN(c3cccn4nc(Nc5ccc(C(=O)N6CCC(N7CCOCC7)CC6)cc5)nc34)C2)c1 [Example 36, 2-[3-(4-ethylpyrazol-1-yl)-1-[2-[4-(4-morpholinopiperidine-1-carbonyl)anilino]-[1,2,4]triazolo[1,5-a]pyridin-8-yl]azetidin-3-yl]acetonitrile] | 0.4 nM | 1.6 nM | 52 nM |
| Cc1cc(Cl)ccc1C1(CC#N)CN(c2cccn3nc(Nc4cnn(CC(=O)N5CCN(C)CC5)c4)nc23)C1 [Example 24, 2-[3-(4-chloro-2-methyl-phenyl)-1-[2-[[1-[2-(4-methylpiperazin-1-yl)-2-oxo-ethyl]pyrazol-4-yl]amino]-[1,2,4]triazolo[1,5-a]pyridin-8-yl]azetidin-3-yl]acetonitrile] | 0.4 nM | 2.3 nM | 87 nM |
| Cn1cc(Nc2nc3c(N4CC(CC#N)(n5cc(C(F)(F)F)cn5)C4)cccn3n2)cn1 [Example 135, 2-[1-[2-[(l-methylpyrazol-4-yl)amino]-[1,2,4]triazolo[1,5-a]pyridin-8-yl]-3-[4-(trifluoromethyl)pyrazol-1-yl]azetidin-3-yl]acetonitrile] | 0.3 nM | 0.5 nM | 10 nM |
| N#CCC1(c2cccc(Cl)c2)CN(c2cccn3nc(Nc4cnn(CC(=O)N5CCC(N6CCOCC6)CC5)c4)nc23)C1 [Example 72, 2-[3-(3-chlorophenyl)-1-[2-[[1-[2-(4-morpholino-1-piperidyl)-2-oxo-ethyl]pyrazol-4-yl]amino]-[1,2,4]triazolo[1,5-a]pyridin-8-yl]azetidin-3-yl]acetonitrile] | 0.6 nM | 0.6 nM | 24 nM |
| CCc1cnn(C2(CC#N)CN(c3cccn4nc(Nc5ccc(C(=O)NCc6ccc(C)nc6)cc5)nc34)C2)c1 [Example 64, 4-[[8-[3-(cyanomethyl)-3-(4-ethylpyrazol-1-yl)azetidin-1-yl]-[1,2,4]triazolo[1,5-a]pyridin-2-yl]amino]-N-[(6-methyl-3-pyridyl)methyl]benzamide] | 0.3 nM | 0.2 nM | 15 nM |
| CCCc1cnn(C2(CC#N)CN(c3cccn4nc(Nc5cnn(CC(=O)N6CCN(C)CC6)c5)nc34)C2)c1 [Example 22] | 1 nM | 3 nM | 36 nM |
| CCc1cnn(C2(CC#N)CN(c3cccn4nc(Nc5cnn(CC(=O)N6CCC(CN7CCN(C(=O)OC)CC7)CC6)c5)nc34)C2)c1 [Example 39, methyl4-[[1-[2-[4-[[8-[3-(cyanomethyl)-3-(4-ethylpyrazol-1-yl)azetidin-1-yl]-[1,2,4]triazolo[1,5-a]pyridin-2-yl]amino]pyrazol-1-yl]acetyl]-4-piperidyl]methyl]piperazine-1-carboxylate] | 0.3 nM | 1.6 nM | 24 nM |
| CCc1cnn(C2(CC#N)CN(c3cccn4nc(Nc5ccc(CC(=O)N6CCN(C)CC6)cc5)nc34)C2)c1 [Example 73, 2-[3-(4-ethylpyrazol-1-yl)-1-[2-[4-[2-(4-methylpiperazin-1-yl)-2-oxo-ethyl]anilino]-[1,2,4]triazolo[1,5-a]pyridin-8-yl]azetidin-3-yl]acetonitrile] | 0.7 nM | 0.3 nM | 18 nM |
| CCc1cnn(C2(CC#N)CN(c3cccn4nc(Nc5ccc(C(=O)N6CCN(C)CC6)c(F)c5)nc34)C2)c1 [Example 91, 2-[3-(4-ethylpyrazol-1-yl)-1-[2-[3-fluoro-4-(4-methylpiperazine-1-carbonyl)anilino]-[1,2,4]triazolo[1,5-a]pyridin-8-yl]azetidin-3-yl]acetonitrile] | 0.4 nM | 0.9 nM | 213 nM |
